Measurements taken from PMC11230492, “Targeting Unique Ligand Binding Domain Structural Features Downregulates DKK1 in Y537S ESR1 Mutant Breast Cancer Cells” (Research Square, 2024).

Molecular target: T1, estrogen receptor alpha (ERα) ligand binding domain (Homo sapiens, UniProt P03372, C381S/C417S/C530S/Y537S)
T1 construct: gene ESR1
T1 sequence (P03372 300-550 C381S/C417S/C530S/Y537S): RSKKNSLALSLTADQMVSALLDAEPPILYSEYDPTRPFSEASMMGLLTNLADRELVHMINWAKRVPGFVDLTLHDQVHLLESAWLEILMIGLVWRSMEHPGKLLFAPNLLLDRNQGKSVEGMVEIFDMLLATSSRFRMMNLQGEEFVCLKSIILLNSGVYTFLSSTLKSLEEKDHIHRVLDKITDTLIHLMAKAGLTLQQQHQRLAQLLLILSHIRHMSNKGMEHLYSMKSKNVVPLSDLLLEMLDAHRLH
Assay: X-ray co-crystal structure, […] Å

## O=C(c1ccccc1)N1C(c2ccc(OCC3CCN(CCCF)C3)cc2)c2ccc(O)cc2CC12CC2 (stereo not shown) [T6I-29]
  X-ray co-crystal structure, 2.20 Å: we solved an x-ray co-crystal structure of T6I-29 in complex with Y537S ERα LBD
